Our source for the Activity values is ChEMBL document CHEMBL1146532, “Seco-prezizaane-type sesquiterpenes and an abietane-type diterpene from Illicium minwanense” (J Nat Prod, 2003).

Activity calls are given as the source filed them. The calls are words filed in the database; no cut-off is given here.

This experiment concerns Cortical neurone. The experiment in a line: Induction of neurite outgrowth in rat cortical neurons at 10 uM after 4 days.

Consider `C[C@]12COC(=O)C[C@@]3(CC(=O)[C@]1(C)O)[C@]2(O)CC[C@]3(C)O`, for which the result was inactive.

For `C[C@@H]1C[C@H](O)[C@@]23O[C@@]4(O)C[C@@]12CC(=O)OC[C@@]3(C)[C@H]4C` (relative stereo), the outcome was inactive.

For `C[C@@H]1CC(=O)[C@@]2(O)[C@]13CC(=O)OC[C@@]2(C)[C@@](C)(O)C(=O)C3`, the outcome was inactive.

On to `C[C@@H]1[C@H](O)C[C@]23OC(=O)C[C@]12C[C@]1(O)OC[C@]3(C)[C@@H]1C`, for which the result was inactive.

Turning to `C[C@@H]1C[C@H](O)[C@@]2(O)[C@]13CC(=O)OC[C@@]2(C)[C@H](C)C(=O)C3`, the result was inactive.

`C[C@@H]1C(=O)C=C2[C@]13CC(=O)O[C@H](C3)[C@@H](C)[C@@]2(C)CO` (relative stereo): the result was inactive.

With `C[C@]12COC(=O)C[C@@]3(CC(=O)[C@]1(C)O)[C@]2(O)[C@@H](O)C[C@]3(C)O`, the outcome was inactive.

As for `C[C@@H]1C[C@H](O)[C@@]2(O)[C@]13CC(=O)O[C@H](C3)[C@@H](C)[C@@]2(C)CO`, the result was inactive.

Consider `C[C@@H]1[C@H]2C[C@]3(CC(=O)O2)C(=CC(=O)[C@@H]3C)[C@]1(C)CO` (relative stereo), for which the result was inactive.

Consider `C[C@@H]1C[C@H](O)[C@@]2(O)[C@]13CC(=O)OC[C@@]2(C)[C@@](C)(O)C(=O)C3`, for which the outcome was inactive.

As for `C[C@@H]1[C@H](O)[C@H](O)[C@@]2(O)[C@]13CC(=O)OC[C@@]2(C)[C@H](C)C(=O)C3`, the outcome was inactive.

For `CO[C@@]12C[C@]34CC(=O)O[C@]3(C[C@@H](O)[C@H]4C)[C@](C)(CO1)[C@@H]2C`, the result was inactive.

Regarding `C[C@@H]1C(=O)C[C@]23CC(=O)OC[C@]1(C)[C@@]2(O)[C@@H](O)C[C@]3(C)O`, the outcome was inactive.
